# Experimental data: publication PMC9926234, “Iterative computational design and crystallographic screening identifies potent inhibitors targeting the Nsp3 macrodomain of SARS-CoV-2” (Proceedings of the National Academy of Sciences of the …, 2023)
# pIC50, pKi: −log10 of the molar value.
# Biological target: T1, SARS-CoV-2 NSP3 Mac1 (Severe acute respiratory syndrome coronavirus 2, UniProt P0DTD1)
# Experiment: not given
# Assay type: binding
# Settings: PanDDA 1-BDC of the event; compound stock 100 mM, Echo dispense volume 40 nl
row,SMILES,1-BDC
1,CS(=O)(=O)NC(=O)C1CN(c2ncnc3[nH]c4cc(F)ccc4c23)CCO1 (stereo not shown) [LL114_0019],0.1
2,O=C(O)C1(F)CN(c2ncnc3[nH]c4cc(Br)ccc4c23)CC12CCC2 (stereo not shown) [LL123_0006],0.08

# Same assay, conditions: PanDDA 1-BDC of the event; compound stock 100 mM, Echo dispense volume 80 nl
row,SMILES,1-BDC
1,O=C(O)C1(F)CN(c2ncnc3[nH]c4cc(Br)ccc4c23)CC12CCC2 (stereo not shown) [LL123_0006],0.15
2,O=C(O)C1CN(c2ncnc3[nH]c4cc(F)ccc4c23)CCC12CCC2 (stereo not shown) [LL123_0029],0.11
3,CS(=O)(=O)NC(=O)C1(F)CN(c2ncnc3[nH]c4cc(F)ccc4c23)CC12CCC2 (stereo not shown) [LL123_0036],0.18

# Same assay, conditions: PanDDA event map 1-BDC; crystal soak, Compound_concentration 100 mM; PanDDA run dmso_34 or nohits_35 per dataset
row,SMILES,1-BDC
1,CS(=O)(=O)NC(=O)C1(F)CN(c2ncnc3[nH]c4cc(F)ccc4c23)CC12CCC2 (stereo not shown) [LL123_0036],0.2
2,O=C(Nc1ccc(C(=O)NC2c3cccc(O)c3CC2C(=O)O)c(Cl)c1)NC1CC1 (stereo not shown) [Z8539_0055],0.22
3,Nc1cc(NC(=O)NC2CC2)ccc1C(=O)NC1c2cccc(O)c2CC1C(=O)O (stereo not shown) [Z8539_0059],0.25

# Same assay, conditions: PanDDA event map background density correction; crystal soak, compound concentration 100 mM
row,SMILES,1-BDC
1,Nc1ccc(C(=O)OC2c3ccccc3CC2C(=O)O)c(O)c1 (stereo not shown) [Z8507],0.37

# Same assay, conditions: PanDDA event map, 1 minus background density correction; crystal soaking of Mac1
SMILES,1-BDC (PanDDA),1-BDC
CS(=O)(=O)NC(=O)C1CN(c2ncnc3[nH]c4cc(F)ccc4c23)CCO1 (stereo not shown) [LL114_0019],0.1,–
O=C(O)C1(F)CN(c2ncnc3[nH]c4cc(Br)ccc4c23)CC12CCC2 (stereo not shown) [LL123_0006],0.08,–
O=C(O)C1CN(c2ncnc3[nH]c4cc(F)ccc4c23)CCC12CCC2 (stereo not shown) [LL123_0029],0.11,–
CS(=O)(=O)NC(=O)C1(F)CN(c2ncnc3[nH]c4cc(F)ccc4c23)CC12CCC2 (stereo not shown) [LL123_0036],0.18,–
Nc1ccc(C(=O)OC2c3ccccc3CC2C(=O)O)c(O)c1 (stereo not shown) [Z8507],0.37,–
O=C(Nc1ccc(C(=O)NC2c3cccc(O)c3CC2C(=O)O)c(Cl)c1)NC1CC1 (stereo not shown) [Z8539_0055],–,0.13
Nc1cc(NC(=O)NC2CC2)ccc1C(=O)NC1c2cccc(O)c2CC1C(=O)O (stereo not shown) [Z8539_0059],0.25,–

# Same assay, conditions: crystal soak, Compound_concentration 100 mM, Echo dispense 40 nl; PanDDA run dmso_34 or nohits_35 per dataset
row,SMILES,PanDDA hit?
1,CS(=O)(=O)NC(=O)C1(F)CN(c2ncnc3[nH]c4cc(F)ccc4c23)CC12CCC2 (stereo not shown) [LL123_0036],TRUE
2,O=C(Nc1ccc(C(=O)NC2c3cccc(O)c3CC2C(=O)O)c(Cl)c1)NC1CC1 (stereo not shown) [Z8539_0055],TRUE
3,Nc1cc(NC(=O)NC2CC2)ccc1C(=O)NC1c2cccc(O)c2CC1C(=O)O (stereo not shown) [Z8539_0059],TRUE

# Same assay, conditions: crystal soak, compound stock 100 mM, Echo dispense volume 40 nl
row,SMILES,PanDDA hit?
1,CS(=O)(=O)NC(=O)C1CN(c2ncnc3[nH]c4cc(F)ccc4c23)CCO1 (stereo not shown) [LL114_0019],TRUE
2,O=C(O)C1(F)CN(c2ncnc3[nH]c4cc(Br)ccc4c23)CC12CCC2 (stereo not shown) [LL123_0006],TRUE

# Same assay, conditions: crystal soak, compound stock 100 mM, Echo dispense volume 80 nl
row,SMILES,PanDDA hit?
1,O=C(O)C1(F)CN(c2ncnc3[nH]c4cc(Br)ccc4c23)CC12CCC2 (stereo not shown) [LL123_0006],TRUE
2,O=C(O)C1CN(c2ncnc3[nH]c4cc(F)ccc4c23)CCC12CCC2 (stereo not shown) [LL123_0029],TRUE
3,CS(=O)(=O)NC(=O)C1(F)CN(c2ncnc3[nH]c4cc(F)ccc4c23)CC12CCC2 (stereo not shown) [LL123_0036],TRUE

# Same assay, conditions: ligand modeled from this dataset; compound concentration 100 mM
row,SMILES,Modeled?
1,O=C(Nc1ccc(C(=O)NC2c3cccc(O)c3CC2C(=O)O)c(Cl)c1)NC1CC1 (stereo not shown) [Z8539_0055],TRUE

# Same assay, conditions: ligand modeled in structure; compound stock 100 mM, Echo dispense volume 40 nl
row,SMILES,Modeled?
1,CS(=O)(=O)NC(=O)C1CN(c2ncnc3[nH]c4cc(F)ccc4c23)CCO1 (stereo not shown) [LL114_0019],TRUE
2,O=C(O)C1(F)CN(c2ncnc3[nH]c4cc(Br)ccc4c23)CC12CCC2 (stereo not shown) [LL123_0006],TRUE

# Same assay, conditions: ligand modeled in structure; compound stock 100 mM, Echo dispense volume 80 nl
row,SMILES,Modeled?
1,O=C(O)C1CN(c2ncnc3[nH]c4cc(F)ccc4c23)CCC12CCC2 (stereo not shown) [LL123_0029],TRUE
2,CS(=O)(=O)NC(=O)C1(F)CN(c2ncnc3[nH]c4cc(F)ccc4c23)CC12CCC2 (stereo not shown) [LL123_0036],TRUE

# Same assay, conditions: ligand modeled in the crystal structure; crystal soak, compound concentration 100 mM
row,SMILES,Modeled?
1,Nc1ccc(C(=O)OC2c3ccccc3CC2C(=O)O)c(O)c1 (stereo not shown) [Z8507],TRUE

# Same assay, conditions: ligand modeled in this dataset; crystal soak, Compound_concentration 100 mM
row,SMILES,Modeled?
1,Nc1cc(NC(=O)NC2CC2)ccc1C(=O)NC1c2cccc(O)c2CC1C(=O)O (stereo not shown) [Z8539_0059],TRUE

# Same assay, conditions: ligand occupancy after refinement (phenix.refine); crystal soaking of Mac1
row,SMILES,Refined occupancy
1,CS(=O)(=O)NC(=O)C1CN(c2ncnc3[nH]c4cc(F)ccc4c23)CCO1 (stereo not shown) [LL114_0019],20
2,O=C(O)C1(F)CN(c2ncnc3[nH]c4cc(Br)ccc4c23)CC12CCC2 (stereo not shown) [LL123_0006],16
3,O=C(O)C1CN(c2ncnc3[nH]c4cc(F)ccc4c23)CCC12CCC2 (stereo not shown) [LL123_0029],22
4,CS(=O)(=O)NC(=O)C1(F)CN(c2ncnc3[nH]c4cc(F)ccc4c23)CC12CCC2 (stereo not shown) [LL123_0036],36
5,Nc1ccc(C(=O)OC2c3ccccc3CC2C(=O)O)c(O)c1 (stereo not shown) [Z8507],74
6,O=C(Nc1ccc(C(=O)NC2c3cccc(O)c3CC2C(=O)O)c(Cl)c1)NC1CC1 (stereo not shown) [Z8539_0055],26
7,Nc1cc(NC(=O)NC2CC2)ccc1C(=O)NC1c2cccc(O)c2CC1C(=O)O (stereo not shown) [Z8539_0059],50

# Same assay, conditions: overall hit call: binding in crystallographic soaking or the HTRF-based binding assay
row,SMILES,HIT*
1,Nc1ccc(C(=O)OC2c3ccccc3CC2C(=O)O)c(O)c1 (stereo not shown) [Z8507],Y

# Same assay, conditions: true hit = binding in crystallographic soaking or the HTRF-based binding assay
row,SMILES,HIT*
1,O=C(O)CC1CN(c2ncnc3[nH]c4cc(Br)ccc4c23)CCO1 (stereo not shown) [LL114_0014],Y
2,CS(=O)(=O)NC(=O)C1CN(c2ncnc3[nH]c4cc(F)ccc4c23)CCO1 (stereo not shown) [LL114_0019],Y
3,O=C(O)C1(F)CN(c2ncnc3[nH]c4cc(Br)ccc4c23)CC12CCC2 (stereo not shown) [LL123_0006],Y
4,O=C(O)C1CN(c2ncnc3[nH]c4cc(F)ccc4c23)CCC12CCC2 (stereo not shown) [LL123_0029],Y
5,CS(=O)(=O)NC(=O)C1(F)CN(c2ncnc3[nH]c4cc(F)ccc4c23)CC12CCC2 (stereo not shown) [LL123_0036],Y
6,O=C(O)CC1CN(c2ncnc3[nH]c4ccccc4c23)CC(C(F)(F)F)O1 (stereo not shown) [Z1229],Y
7,CC1(C)CN(c2ncnc3[nH]c4ccccc4c23)CC(CC(=O)O)O1 (stereo not shown) [Z2215],Y
8,O=C(O)C(F)(F)F.O=C(O)C1CN(c2ncnc3[nH]c4ccccc4c23)CC12CCC2 (stereo not shown) [Z4706],Y
9,O=C(O)CC1CCN(c2ncnc3[nH]c4ccccc4c23)CCC1(F)F (stereo not shown) [Z6423],Y
10,O=C(Nc1ccc(C(=O)NC2c3cccc(O)c3CC2C(=O)O)cn1)NC1CC1 (stereo not shown) [Z8539_0054],Y
11,O=C(Nc1ccc(C(=O)NC2c3cccc(O)c3CC2C(=O)O)c(Cl)c1)NC1CC1 (stereo not shown) [Z8539_0055],Y
12,Nc1cc(NC(=O)NC2CC2)ccc1C(=O)NC1c2cccc(O)c2CC1C(=O)O (stereo not shown) [Z8539_0059],Y

# Biological target: T1, SARS-CoV-2 NSP3 Mac1
# Experiment: biochemical
# Assay type: binding
# Settings: not given
row,SMILES,"binding to Mac1 in the HTRF assay, result in words"
1,CN(C(=O)c1ccc(NC(=O)NC2CC2)cc1)C1c2cccc(O)c2CC1C(=O)O (stereo not shown) [Z8539_0056],inactive

# Same assay, conditions: HTRF ADPr-peptide displacement from SARS-CoV-2 Mac1; read-out: IC50
row,SMILES,pIC50
1,CS(=O)(=O)NC(=O)C1CN(c2ncnc3[nH]c4cc(F)ccc4c23)CCO1 (stereo not shown) [LL114_0019],4.92
2,O=C(O)C1CN(c2ncnc3[nH]c4cc(F)ccc4c23)CCC12CCC2 (stereo not shown) [LL123_0029],4.80
3,CS(=O)(=O)NC(=O)C1(F)CN(c2ncnc3[nH]c4cc(F)ccc4c23)CC12CCC2 (stereo not shown) [LL123_0036],4.77
4,Nc1ccc(C(=O)OC2c3ccccc3CC2C(=O)O)c(O)c1 (stereo not shown) [Z8507],3.84
5,O=C(Nc1ccc(C(=O)NC2c3cccc(O)c3CC2C(=O)O)c(Cl)c1)NC1CC1 (stereo not shown) [Z8539_0055],5.02
6,Nc1cc(NC(=O)NC2CC2)ccc1C(=O)NC1c2cccc(O)c2CC1C(=O)O (stereo not shown) [Z8539_0059],6.05

# Same assay, conditions: HTRF; read-out: IC50
row,SMILES,pIC50
1,O=C(O)CC1CN(c2ncnc3[nH]c4cc(Br)ccc4c23)CCO1 (stereo not shown) [LL114_0014],4.59
2,CS(=O)(=O)NC(=O)C1CN(c2ncnc3[nH]c4cc(F)ccc4c23)CCO1 (stereo not shown) [LL114_0019],4.91
3,O=C(O)C1(F)CN(c2ncnc3[nH]c4cc(Br)ccc4c23)CC12CCC2 (stereo not shown) [LL123_0006],4.03
4,O=C(O)C1CN(c2ncnc3[nH]c4cc(F)ccc4c23)CCC12CCC2 (stereo not shown) [LL123_0029],4.80
5,O=C(O)CC1CN(c2ncnc3[nH]c4ccccc4c23)CC(C(F)(F)F)O1 (stereo not shown) [Z1229],3.92
6,CC1(C)CN(c2ncnc3[nH]c4ccccc4c23)CC(CC(=O)O)O1 (stereo not shown) [Z2215],3.94
7,O=C(O)C(F)(F)F.O=C(O)C1CN(c2ncnc3[nH]c4ccccc4c23)CC12CCC2 (stereo not shown) [Z4706],4.81
8,O=C(O)CC1CCN(c2ncnc3[nH]c4ccccc4c23)CCC1(F)F (stereo not shown) [Z6423],3.84
9,O=C(Nc1ccc(C(=O)NC2c3cccc(O)c3CC2C(=O)O)cn1)NC1CC1 (stereo not shown) [Z8539_0054],4.80
10,O=C(Nc1ccc(C(=O)NC2c3cccc(O)c3CC2C(=O)O)c(Cl)c1)NC1CC1 (stereo not shown) [Z8539_0055],5.00
11,Nc1cc(NC(=O)NC2CC2)ccc1C(=O)NC1c2cccc(O)c2CC1C(=O)O (stereo not shown) [Z8539_0059],6.10

# Same assay, conditions: Ki estimation from HTRF-derived IC50, Cheng-Prusoff, peptide 400nM, Kd 2.68µM; read-out: Ki***
row,SMILES,pKi
1,O=C(O)CC1CN(c2ncnc3[nH]c4cc(Br)ccc4c23)CCO1 (stereo not shown) [LL114_0014],4.65
2,CS(=O)(=O)NC(=O)C1CN(c2ncnc3[nH]c4cc(F)ccc4c23)CCO1 (stereo not shown) [LL114_0019],4.97
3,O=C(O)C1(F)CN(c2ncnc3[nH]c4cc(Br)ccc4c23)CC12CCC2 (stereo not shown) [LL123_0006],4.09
4,O=C(O)C1CN(c2ncnc3[nH]c4cc(F)ccc4c23)CCC12CCC2 (stereo not shown) [LL123_0029],4.86
5,CS(=O)(=O)NC(=O)C1(F)CN(c2ncnc3[nH]c4cc(F)ccc4c23)CC12CCC2 (stereo not shown) [LL123_0036],4.83
6,O=C(O)CC1CN(c2ncnc3[nH]c4ccccc4c23)CC(C(F)(F)F)O1 (stereo not shown) [Z1229],3.98
7,CC1(C)CN(c2ncnc3[nH]c4ccccc4c23)CC(CC(=O)O)O1 (stereo not shown) [Z2215],4.00
8,O=C(O)C(F)(F)F.O=C(O)C1CN(c2ncnc3[nH]c4ccccc4c23)CC12CCC2 (stereo not shown) [Z4706],4.87
9,O=C(O)CC1CCN(c2ncnc3[nH]c4ccccc4c23)CCC1(F)F (stereo not shown) [Z6423],3.91
10,O=C(Nc1ccc(C(=O)NC2c3cccc(O)c3CC2C(=O)O)cn1)NC1CC1 (stereo not shown) [Z8539_0054],4.86
11,O=C(Nc1ccc(C(=O)NC2c3cccc(O)c3CC2C(=O)O)c(Cl)c1)NC1CC1 (stereo not shown) [Z8539_0055],5.06
12,Nc1cc(NC(=O)NC2CC2)ccc1C(=O)NC1c2cccc(O)c2CC1C(=O)O (stereo not shown) [Z8539_0059],6.15

# Same assay, conditions: read-out: Ki***
row,SMILES,pKi
1,Nc1ccc(C(=O)OC2c3ccccc3CC2C(=O)O)c(O)c1 (stereo not shown) [Z8507],3.90
